From US11976083B2, “Inhibitors of peptidylarginine deiminases” (Gilead Sciences, Inc., priority 2020, dated 2024)
pIC50: −log10 of the molar value.

What follows are molecules tested against T1, human PAD4 (Homo sapiens, UniProt Q9UM07) (assay: In vitro PAD4 BAEE biochemical assay). Settings: BAEE substrate 3 mM, 5 nM PAD4, 2 mM calcium chloride; geometric mean of multiple experiments.
T1 construct: human PAD4 (NM_012387), A2-P663, was PCR amplified; His-SUMO (N, cleaved yes); made in house; host or cells: E. coli BL21(DE3)
T1 sequence (Q9UM07 2-663): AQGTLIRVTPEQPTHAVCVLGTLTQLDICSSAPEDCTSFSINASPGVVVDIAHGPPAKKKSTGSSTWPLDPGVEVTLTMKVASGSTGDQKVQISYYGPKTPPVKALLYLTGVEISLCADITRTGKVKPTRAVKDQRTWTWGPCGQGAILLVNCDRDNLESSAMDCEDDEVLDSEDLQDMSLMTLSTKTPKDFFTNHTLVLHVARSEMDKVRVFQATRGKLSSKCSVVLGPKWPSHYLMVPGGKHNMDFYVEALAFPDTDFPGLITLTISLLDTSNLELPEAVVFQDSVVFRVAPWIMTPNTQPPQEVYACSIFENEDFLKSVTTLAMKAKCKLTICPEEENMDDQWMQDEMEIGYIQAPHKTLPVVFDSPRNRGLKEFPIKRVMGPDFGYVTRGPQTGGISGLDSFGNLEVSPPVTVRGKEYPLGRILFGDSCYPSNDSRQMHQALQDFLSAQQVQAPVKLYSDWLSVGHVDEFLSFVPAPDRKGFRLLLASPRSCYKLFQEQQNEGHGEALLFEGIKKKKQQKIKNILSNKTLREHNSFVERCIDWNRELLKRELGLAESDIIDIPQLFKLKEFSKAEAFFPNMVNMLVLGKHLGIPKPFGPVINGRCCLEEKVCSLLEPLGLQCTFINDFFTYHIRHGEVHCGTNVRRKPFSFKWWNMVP
In short: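 Assay was run at 25 °C using 3 mM BAEE and 5 nM human PAD4 after a 30 min compound preincubation; ammonia produced over 2 h was quantified by OPA-derived fluorescence. Full inhibition was defined by 50 µM BB-Cl-Amidine, and IC50 came from variable-slope nonlinear regression.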
For `COc1cc(C(=O)N[C@H]2CNCC[C@@H]2F)cc2nc(-c3cc4ccc5nc4n3CCCCCCC(C)(C)C(=O)N[C@@H]5C)n(C)c12` [Example 75, ~{N}-[(3~{S},4~{S})-4-fluoro-3-piperidyl]-7-methoxy-1-methyl-2-[(11~{R})-8,8,11-trimethyl-9-oxo-1,10,19-triazatricyclo[10.5.2.0^{15,18}]nonadeca-12(19),13,15(18),16-tetraen-17-yl]benzimidazole-5-carboxamide], the pIC50 was 6.99. `COc1cc(C(=O)N[C@H]2CNCC[C@@H]2F)cc2nc(-c3cc4ccc5nc4n3CCCCCC(C)(C)C(=O)N[C@@H]5C)n(C)c12` [Example 76, ~{N}-[(3~{S),4~{S})-4-fluoro-3-piperidyl]-7-methoxy-1-methyl-2-[(10~{R})-7,7,10-trimethyl-8-oxo-1,9,18-triazatricyclo[9.5.2.0^{14,17}]octadeca-11(18),12,14(17),15-tetraen-16-yl]benzimidazole-5-carboxamide] showed a pIC50 of 7.06. For `COc1cc(C(=O)N[C@@H]2CCCCNC2)cc2nc(-c3cc4ccc5nc4n3CCCCCCC3(CC3)C(=O)N[C@@H]5C)n(C)c12` [Example 77, ~{N}-[(3~{R})-azepan-3-yl]-7-methoxy-1-methyl-2-[(11~{R})-11-methyl-9-oxo-spiro[1,10,19-triazatricyclo[10.5.2.0^{15,18}]nonadeca-12(19),13,15(18),16-tetraene-8,1′-cyclopropane]-17-yl]benzimidazole-5-carboxamide], the pIC50 was 6.44. With `COc1cc(C(=O)N[C@@H]2CCCCNC2)cc2nc(-c3cc4ccc5nc4n3CCCCCCC(C)(C)C(=O)N[C@@H]5C)n(C)c12` [Example 78, ~{N}-[(3~{R})-azepan-3-yl]-7-methoxy-1-methyl-2-[(11~{R})-8,8,11-trimethyl-9-oxo-1,10,19-triazatricyclo[10.5.2.0^{15,18}]nonadeca-12(19),13,15(18),16-tetraen-17-yl]benzimidazole-5-carboxamide] the pIC50 was 7.10. `COc1cc(C(=O)N2CC[C@H]3CCN[C@H]3C2)cc2nc(-c3cc4ccc5nc4n3CCCCCCC(C)(C)C(=O)N[C@@H]5C)n(C)c12` [Example 79, (11~{R})-17-[5-[(3~{a}~{R},7~{a}~{R})-1,2,3,3~{a},4,5,7,7~{a}-octahydropyrrolo[2,3-c]pyridine-6-carbonyl]-7-methoxy-1-methyl-benzimidazol-2-yl]-8,8,11-trimethyl-1,10,19-triazatricyclo[10.5.2.0^{15,18}]nonadeca-12(19),13,15(18),16-tetraen-9-one] showed a pIC50 of 7.12. `COc1cc(C(=O)N2C[C@H]3CCCN[C@H]3C2)cc2nc(-c3cc4ccc5nc4n3CCCCCCC(C)(C)C(=O)N[C@@H]5C)n(C)c12` [Example 80, (11~{R})-17-[5-[(4~{a}~{R},7~{a}~{R})-1,2,3,4,4~{a},5,7,7~{a}-octahydropyrrolo[3,4-b]pyridine-6-carbonyl]-7-methoxy-1-methyl-benzimidazol-2-yl]-8,8,11-trimethyl-1,10,19-triazatricyclo[10.5.2.0^{15,18}]nonadeca-12(19),13,15(18),16-tetraen-9-one] was tested, and the pIC50 was 6.59. Molecule `COc1cc(C(=O)N2CC[C@@H]3CCN[C@@H]3C2)cc2nc(-c3cc4ccc5nc4n3CCCCCCC(C)(C)C(=O)N[C@@H]5C)n(C)c12` [Example 81, (11~{R})-17-[5-[(3~{a}~{S},7~{a}~{S})-1,2,3,3~{a},4,5,7,7~{a}-octahydropyrrolo[2,3-c]pyridine-6-carbonyl]-7-methoxy-1-methyl-benzimidazol-2-yl]-8,8,11-trimethyl-1,10,19-triazatricyclo[10.5.2.0^{15,18}]nonadeca-12(19),13,15(18),16-tetraen-9-one] has a pIC50 of 6.30. `COc1cc(C(=O)N[C@H]2CNCC[C@H]2OC)cc2nc(-c3cc4ccc5nc4n3CCCCCCC(C)(C)C(=O)N[C@@H]5C)n(C)c12` [Example 82, 7-methoxy-~{N}-[(3~{S},4~{R})-4-methoxy-3-piperidyl]-1-methyl-2-[(11~{R})-8,8,11-trimethyl-9-oxo-1,10,19-triazatricyclo[10.5.2.0^{15,18}]nonadeca-12(19),13,15(18),16-tetraen-17-yl]benzimidazole-5-carboxamide] showed a pIC50 of 5.09. For `COc1cc(C(=O)N2[C@H]3CC[C@@H]2[C@H](N)C3)cc2nc(-c3cc4ccc5nc4n3CCCCCCOc3ncccc3-5)n(C)c12` [Example 83, [(1~{R},2~{R},4~{S})-2-amino-7-azabicyclo[2.2.1]heptan-7-yl]-[7-methoxy-1-methyl-2-(8-oxa-6,15,21-triazatetracyclo[13.5.2.0^{2,7}.0^{18,22}]docosa-1(21),2,4,6,16,18(22),19-heptaen-16-yl)benzimidazol-5-yl]methanone], the pIC50 was 6.69. Molecule `COc1cc(C(=O)N2[C@H]3CC[C@@H]2[C@H](N)C3)cc2nc(-c3cc4ccc5nc4n3CCCCCCC(=O)Nc3ncccc3-5)n(C)c12` [Example 84, 17-[5-[(1~{R},2~{R},4~{S})-2-amino-7-azabicyclo[2.2.1]heptane-7-carbonyl]-7-methoxy-1-methyl-benzimidazol-2-yl]-6,8,16,22-tetrazatetracyclo[14.5.2.0^{2,7}.0^{19,23}] tricosa-1(22),2,4,6,17,19(23),20-heptaen-9-one] has a pIC50 of 7.05. `COc1cc(C(=O)N2[C@H]3CC[C@@H]2[C@H](N)C3)cc2nc(-c3cc4ccc5nc4n3CCCCCCCOc3ncccc3-5)n(C)c12` [Example 85, [(1˜{R},2˜{R},4˜{S})-2-amino-7-azabicyclo[2.2.1]heptan-7-yl]-[7-methoxy-1-methyl-2-(8-oxa-6,16,22-triazatetracyclo[14.5.2.0^{2,7}.0^{19,23}]tricosa-1(22),2,4,6,17,19(23),20-heptaen-17-yl)benzimidazol-5-yl]methanone] gave a pIC50 of 6.39. For `COc1cc(C(=O)N2[C@H]3CC[C@@H]2[C@H](N)C3)cc2nc(-c3cc4ccc5nc4n3CCCCCCCCOc3ncccc3-5)n(C)c12` [Example 86, [(1~{R},2~{R},4~{S})-2-amino-7-azabicyclo[2.2.1]heptan-7-yl]-[7-methoxy-1-methyl-2-(8-oxa-6,17,23-triazatetracyclo[15.5.2.0^{2,7}.0^{20,24}]tetracosa-1(23),2,4,6,18,20(24),21-heptaen-18-yl)benzimidazol-5-yl]methanone], the pIC50 was 6.19. `COc1cc(C(=O)N2[C@H]3CC[C@@H]2[C@H](N)C3)cc2nc(-c3cc4ccc5nc4n3CCCCCCC(=O)Nc3ccccc3-5)n(C)c12` [Example 87, 17-[5-[(1~{R},2~{R},4~{S})-2-amino-7-azabicyclo[2.2.1]heptane-7-carbonyl]-7-methoxy-1-methyl-benzimidazol-2-yl]-8,16,22-triazatetracyclo[14.5.2.0^{2,7}.0^{19,23}] tricosa-1(22),2,4,6,17,19(23),20-heptaen-9-one] gave a pIC50 of 7.08. In the case of `COc1cc(C(=O)N2[C@H]3CC[C@@H]2[C@H](N)C3)cc2nc(-c3cc4ccc5cc4n3CCCCCCC(=O)Nc3ncccc3-5)n(C)c12` [Example 88, 17-[5-[(1˜{R},2˜{R},4˜{S})-2-amino-7-azabicyclo[2.2.1]heptane-7-carbonyl]-7-methoxy-1-methyl-benzimidazol-2-yl]-6,8,16-triazatetracyclo[14.5.2.0^{2,7}.0^{19,23}]tricosa-1(22),2,4,6,17,19(23),20-heptaen-9-one], the pIC50 was 7.01. With `COc1cc(C(=O)N2[C@H]3CC[C@@H]2[C@H](N)C3)cc2nc(-c3cc4ccc5nc4n3CCCCCCCC(=O)Nc3ncccc3-5)n(C)c12` [Example 89, 18-[5-[(1~{R},2~{R},4~{S})-2-amino-7-azabicyclo[2.2.1]heptane-7-carbonyl]-7-methoxy-1-methyl-benzimidazol-2-yl]-6,8,17,23-tetrazatetracyclo[15.5.2.0^{2,7}.0^{20,24}] tetracosa-1(23),2,4,6,18,20(24),21-heptaen-9-one] the pIC50 was 6.95. In the case of `COc1cc(C(=O)N2[C@H]3CC[C@@H]2[C@H](N)C3)cc2nc(-c3cc4ccc5nc4n3CCCCCCC(=O)Nc3ccncc3-5)n(C)c12` [Example 90, 17-[5-[(1~{R},2~{R},4~{S})-2-amino-7-azabicyclo[2.2.1]heptane-7-carbonyl]-7-methoxy-1-methyl-benzimidazol-2-yl]-4,8,16,22-tetrazatetracyclo[14.5.2.0^{2,7}.0^{19,23}] tricosa-1(22),2,4,6,17,19(23),20-heptaen-9-one], the pIC50 was 6.30. `COc1cc(C(=O)N2[C@H]3CC[C@@H]2[C@H](N)C3)cc2nc(-c3cc4ccc5nc4n3CCCCCCNC(=O)c3ncccc3-5)n(C)c12` [Example 91, 17-[5-[(1˜{R},2˜{R},4˜{S})-2-amino-7-azabicyclo[2.2.1]heptane-7-carbonyl]-7-methoxy-1-methyl-benzimidazol-2-yl]-6,9,16,22-tetrazatetracyclo[14.5.2.0^{2,7}.0^{19,23}]tricosa-1(22),2,4,6,17,19(23),20-heptaen-8-one] showed a pIC50 of 7.09. `COc1cc(C(=O)N2[C@H]3CC[C@@H]2[C@H](N)C3)cc2nc(-c3cc4ccc5nc4n3CCCCCC(=O)Nc3ncccc3-5)n(C)c12` [Example 92, 16-[5-[(1~{R},2~{R},4~{S})-2-amino-7-azabicyclo[2.2.1]heptane-7-carbonyl]-7-methoxy-1-methyl-benzimidazol-2-yl]-6,8,15,21-tetrazatetracyclo[13.5.2.0^{2,7}.0^{18,22}] docosa-1(21),2(7),3,5,16,18(22),19-heptaen-9-one] gave a pIC50 of 6.76. `COc1cc(C(=O)N2[C@H]3CC[C@@H]2[C@H](N)C3)cc2nc(-c3cc4ccc5nc4n3CCCCCCCC(=O)Nc3ccccc3-5)n(C)c12` [Example 93, 18-[5-[(1~{R},2~{R},4~{S})-2-amino-7-azabicyclo[2.2.1]heptane-7-carbonyl]-7-methoxy-1-methyl-benzimidazol-2-yl]-8,17,23-triazatetracyclo[15.5.2.0^{2,7).0^{20,24}] tetracosa-1(23),2,4,6,18,20(24),21-heptaen-9-one] gave a pIC50 of 6.79.
